From PubChem BioAssay (NCI)
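The compound was tested at five concentrations on cells cultured in 96-well plates, with a 48-hour exposure period. GI50 is the concentration that inhibits growth by half. The concentration for full growth arrest is given as TGI.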

Assays:
Assay in all cases: DTP human tumour cell line panel, 48 h
786-0 renal = system: 786-0 renal
A498 renal = system: A498 renal
A549 NSCLC = system: A549 NSCLC
ACHN renal = system: ACHN renal
BT-549 breast = system: BT-549 breast
CAKI-1 renal = system: CAKI-1 renal
CCRF-CEM leukemia = system: CCRF-CEM leukemia
COLO 205 colon = system: COLO 205 colon
DU-145 prostate = system: DU-145 prostate
EKVX NSCLC = system: EKVX NSCLC
HCC-2998 colon = system: HCC-2998 colon
HCT-116 colon = system: HCT-116 colon
HCT-15 colon = system: HCT-15 colon
HL-60(TB) leukemia = system: HL-60(TB) leukemia
HOP-62 NSCLC = system: HOP-62 NSCLC
HOP-92 NSCLC = system: HOP-92 NSCLC
HS 578T breast = system: HS 578T breast
HT29 colon = system: HT29 colon
IGROV1 ovarian = system: IGROV1 ovarian
K-562 leukemia = system: K-562 leukemia
KM12 colon = system: KM12 colon
LOX IMVI melanoma = system: LOX IMVI melanoma
M14 melanoma = system: M14 melanoma
MALME-3M melanoma = system: MALME-3M melanoma
MCF7 breast = system: MCF7 breast
MDA-MB-231 breast = system: MDA-MB-231 breast
MDA-MB-435 = system: MDA-MB-435
MOLT-4 leukemia = system: MOLT-4 leukemia
NCI-H226 lung = system: NCI-H226 lung
NCI-H23 lung = system: NCI-H23 lung
NCI-H460 lung = system: NCI-H460 lung
NCI-H522 lung = system: NCI-H522 lung
NCI/ADR-RES ovarian = system: NCI/ADR-RES ovarian
OVCAR-3 ovarian = system: OVCAR-3 ovarian
OVCAR-4 ovarian = system: OVCAR-4 ovarian
OVCAR-5 ovarian = system: OVCAR-5 ovarian
OVCAR-8 ovarian = system: OVCAR-8 ovarian
PC-3 prostate = system: PC-3 prostate
RPMI-8226 leukemia = system: RPMI-8226 leukemia
RXF 393 renal = system: RXF 393 renal
SF-268 CNS = system: SF-268 CNS
SF-295 CNS = system: SF-295 CNS
SF-539 CNS = system: SF-539 CNS
SK-MEL-2 melanoma = system: SK-MEL-2 melanoma
SK-MEL-28 melanoma = system: SK-MEL-28 melanoma
SK-MEL-5 melanoma = system: SK-MEL-5 melanoma
SK-OV-3 ovarian = system: SK-OV-3 ovarian
SN12C renal = system: SN12C renal
SNB-19 CNS = system: SNB-19 CNS
SNB-75 CNS = system: SNB-75 CNS
SR leukemia = system: SR leukemia
SW-620 colon = system: SW-620 colon
T-47D breast = system: T-47D breast
TK-10 renal = system: TK-10 renal
U251 CNS = system: U251 CNS
UACC-257 melanoma = system: UACC-257 melanoma
UACC-62 melanoma = system: UACC-62 melanoma
UO-31 renal = system: UO-31 renal

Cn1c(=O)n(CCCO)c(=O)c2c1nc(Oc1cccc(OC(F)(F)F)c1)n2Cc1ccc(Cl)cc1
GI50 (786-0 renal): 12.5 µM
TGI (786-0 renal): 27.4 µM
GI50 (A498 renal): 13.8 µM
TGI (A498 renal): 26.9 µM
GI50 (A549 NSCLC): 11.2 µM
TGI (A549 NSCLC): 25.5 µM
GI50 (ACHN renal): 10.7 µM
TGI (ACHN renal): 23.4 µM
GI50 (BT-549 breast): 12.9 µM
TGI (BT-549 breast): 26.4 µM
GI50 (CAKI-1 renal): 9.05 µM
TGI (CAKI-1 renal): 22.6 µM
GI50 (CCRF-CEM leukemia): 14.6 µM
TGI (CCRF-CEM leukemia): 39.8 µM
GI50 (COLO 205 colon): 12.6 µM
TGI (COLO 205 colon): 30.3 µM
GI50 (DU-145 prostate): 13.2 µM
TGI (DU-145 prostate): 27.5 µM
GI50 (EKVX NSCLC): 12.4 µM
TGI (EKVX NSCLC): 32.2 µM
GI50 (HCC-2998 colon): 15 µM
TGI (HCC-2998 colon): 33.9 µM
GI50 (HCT-116 colon): 5.46 µM
TGI (HCT-116 colon): 19.6 µM
GI50 (HCT-15 colon): 10.2 µM
TGI (HCT-15 colon): 28.7 µM
GI50 (HL-60(TB) leukemia): 5.78 µM
TGI (HL-60(TB) leukemia): 22.9 µM
GI50 (HOP-62 NSCLC): 16 µM
TGI (HOP-62 NSCLC): 33.3 µM
GI50 (HOP-92 NSCLC): 11 µM
TGI (HOP-92 NSCLC): 24.5 µM
GI50 (HS 578T breast): 16.3 µM
TGI (HS 578T breast): 43.4 µM
GI50 (HT29 colon): 8.01 µM
TGI (HT29 colon): 23.2 µM
GI50 (IGROV1 ovarian): 14.2 µM
TGI (IGROV1 ovarian): 31.9 µM
GI50 (K-562 leukemia): 7.72 µM
TGI (K-562 leukemia): 68.8 µM
GI50 (KM12 colon): 13.5 µM
TGI (KM12 colon): 32.4 µM
GI50 (LOX IMVI melanoma): 12 µM
TGI (LOX IMVI melanoma): 28.8 µM
GI50 (M14 melanoma): 11.8 µM
TGI (M14 melanoma): 27.4 µM
GI50 (MALME-3M melanoma): 15.7 µM
TGI (MALME-3M melanoma): 31.6 µM
GI50 (MCF7 breast): 4.77 µM
TGI (MCF7 breast): 22.2 µM
GI50 (MDA-MB-231 breast): 14.6 µM
TGI (MDA-MB-231 breast): 32.1 µM
GI50 (MDA-MB-435): 11.8 µM
TGI (MDA-MB-435): 27.2 µM
GI50 (MOLT-4 leukemia): 5.21 µM
TGI (MOLT-4 leukemia): 21.7 µM
GI50 (NCI-H226 lung): 16.8 µM
TGI (NCI-H226 lung): 38.4 µM
GI50 (NCI-H23 lung): 15.8 µM
TGI (NCI-H23 lung): 37.6 µM
GI50 (NCI-H460 lung): 8.5 µM
TGI (NCI-H460 lung): 23.9 µM
GI50 (NCI-H522 lung): 6.06 µM
TGI (NCI-H522 lung): 23.2 µM
GI50 (NCI/ADR-RES ovarian): 11.4 µM
TGI (NCI/ADR-RES ovarian): 33.4 µM
GI50 (OVCAR-3 ovarian): 11.4 µM
TGI (OVCAR-3 ovarian): 25.2 µM
GI50 (OVCAR-4 ovarian): 13.2 µM
TGI (OVCAR-4 ovarian): 30.4 µM
GI50 (OVCAR-5 ovarian): 13.1 µM
TGI (OVCAR-5 ovarian): 26.3 µM
GI50 (OVCAR-8 ovarian): 14.4 µM
TGI (OVCAR-8 ovarian): 37.6 µM
GI50 (PC-3 prostate): 13.7 µM
TGI (PC-3 prostate): 29.3 µM
GI50 (RPMI-8226 leukemia): 10.4 µM
TGI (RPMI-8226 leukemia): 51.3 µM
GI50 (RXF 393 renal): 11.2 µM
TGI (RXF 393 renal): 27.3 µM
GI50 (SF-268 CNS): 8.54 µM
TGI (SF-268 CNS): 24.5 µM
GI50 (SF-295 CNS): 13 µM
TGI (SF-295 CNS): 28.5 µM
GI50 (SF-539 CNS): 12.9 µM
TGI (SF-539 CNS): 26.9 µM
GI50 (SK-MEL-2 melanoma): 14.7 µM
TGI (SK-MEL-2 melanoma): 32.6 µM
GI50 (SK-MEL-28 melanoma): 14.1 µM
TGI (SK-MEL-28 melanoma): 29.5 µM
GI50 (SK-MEL-5 melanoma): 16 µM
TGI (SK-MEL-5 melanoma): 30.9 µM
GI50 (SK-OV-3 ovarian): 18.1 µM
TGI (SK-OV-3 ovarian): 34 µM
GI50 (SN12C renal): 13 µM
TGI (SN12C renal): 29.8 µM
GI50 (SNB-19 CNS): 18.4 µM
TGI (SNB-19 CNS): 40.1 µM
GI50 (SNB-75 CNS): 11.8 µM
TGI (SNB-75 CNS): 26.7 µM
GI50 (SR leukemia): 3.79 µM
TGI (SR leukemia): 18.2 µM
GI50 (SW-620 colon): 13.1 µM
TGI (SW-620 colon): 31.2 µM
GI50 (T-47D breast): 3.78 µM
TGI (T-47D breast): 21 µM
GI50 (TK-10 renal): 14.7 µM
TGI (TK-10 renal): 30.1 µM
GI50 (U251 CNS): 12.5 µM
TGI (U251 CNS): 29.8 µM
GI50 (UACC-257 melanoma): 17.5 µM
TGI (UACC-257 melanoma): 34.5 µM
GI50 (UACC-62 melanoma): 13.2 µM
TGI (UACC-62 melanoma): 29.1 µM
GI50 (UO-31 renal): 3.91 µM
TGI (UO-31 renal): 17.7 µM
